Columns and labels:
[1] = stability of compound A in aqueous solution by pH (hydrolysis seen by HPLC); type: physicochemical
Source text: The difficult point when the crystal of the compound A is obtained by the present method is in removing citric acid from the aqueous solution containing the compound A and citric acid in an acidic condition. Since the compound A is unstable in a neutral to alkaline (pH of 5 or higher) aqueous solution, in order to suppress decomposition of the compound A, maintenance of an acidic condition is important. Therefore, the aqueous solution containing the compound A and citric acid and having a pH of 2.0 or lower to be used in the step (a) may be an aqueous solution whose pH is preferably 0.6 to 1.8 and most preferably 1.0 to 1.6. […]
The purified precipitate obtained at a pH of 3.6 by the above operation and the purified precipitate obtained at a pH of 6.0 thereby were each evaluated by qualitative analysis using HPLC (FIG. 5, FIG. 6). The each precipitate (about 10 mg) was dissolved in purified water (about 1 mL), diluted 40-fold with a 10 mM perchloric acid solution being a mobile phase of the qualitative analysis using HPLC, and analyzed (by being diluted with the 10 mM perchloric acid solution, which was an acidic solvent, the Ca salts of the compound A were converted to the compound A, thus the detection was made as the compound A.). […]

[2] = solubility in isopropanol-water mixed solvent; type: physicochemical; details: mixed solvent of isopropanol and water, ratio of isopropanol 40% or higher
Description: A highly purified crystalline powder of the compound A was obtained by repeating three times the same operation as in the recrystallization described in the paragraph of Example 3. 100 mL of purified water (Japanese Pharmacopoeia purified water) was added to 10 g of the crystalline powder, which was then dissolved by heating the resultant in a water bath at 50° C. The resultant solution was filtered by using a membrane filter (Merck Millipore) of 0.22 μm in pore size, and the resultant filtrate was collected. The filtrate was concentrated by using an evaporator on a water bath at 40° C. to thereby collect the resultant as an about 50 ml of a solution. This solution was concentrated and […] to thereby become a solution in a supersaturated state. The solution as it was in the heated state (40° C.) was dispensed in test tubes with a lid so as to have solvent ratios indicated in the following Table (Table 4) to thereby produce solutions having mixed solvents. Specifically, by adding 100 μL of organic solvents of methanol, ethanol, acetone and the like to 400 μL of the supersaturated solution, there was made a solution having a water ratio in the mixed solvent of 80%. […]

liver disorder = details: known active substance; cited from earlier work
[3] = hygroscopicity and handling of the solid; type: physicochemical; details: when concentrated and solidified / powder
Source text: On the other hand, the crystal of the compound A was a non-hygroscopic powder, which was easily handled.

For O=C(O)CC(C(=O)O)N1C(=O)CC(O)(CC(=O)O)C1=O (stereo not drawn) [compound A], which “hydrolysis of the imide structure” value ([1]; alkali added for the pH to be 6.0, 80% ethanol precipitation, HPLC) is on record?
The value was “hydrolysis of the compound A progressed”.

What about the “stability in aqueous solution” value ([1]; neutral to alkaline (pH of 5 or higher) aqueous solution) of the same molecule?
The value was “unstable”.

What about the solubility [2] of the same molecule?
The solubility was “decreased”.

And the “inhibitory effect against liver disorder” value (liver disorder)?
Its value is “inhibitory effect against liver disorder”.

For O=C(O)CC(C(=O)O)N1C(=O)C[C@@](O)(CC(=O)O)C1=O (stereo partly drawn) [crystal of the compound A], which hygroscopicity [3] is on record?
Its hygroscopicity is “non-hygroscopic”.

With O=C(O)C[C@@H](C(=O)O)N1C(=O)C[C@@](O)(CC(=O)O)C1=O [noncrystal of the compound A] as the molecule, how does the hygroscopicity [3] read?
Its hygroscopicity is “had hygroscopicity”.

From patent US20200055821A1, “METHOD FOR MANUFACTURING DIASTEREOMER OF CITRIC ACID DERIVATIVE” (OTSUKA PHARMACEUTICAL FACTORY, INC., priority 2017, published 2020)
